From ChEMBL document CHEMBL3734723, “Synthesis and anticancer activity of 6-heteroarylcoumarins” (2015)

Key:
Type in all cases: functional
EKVX = assay: Growth inhibition of human EKVX cells incubated for 48 hrs by sulforhodamine B assay
[1] = Growth inhibition of human COLO205 cells incubated for 48 hrs by sulforhodamine B assay; details: COLO 205, 48 h; for CC50: read-out: LC50 (the source's name)
[2] = Growth inhibition of human HCC2998 cells incubated for 48 hrs by sulforhodamine B assay; details: HCC 2998, 48 h; for CC50: read-out: LC50 (the source's name)
[3] = Growth inhibition of human HCT15 cells incubated for 48 hrs by sulforhodamine B assay; details: HCT-15, 48 h; for CC50: read-out: LC50 (the source's name)
[4] = Growth inhibition of human SW620 cells incubated for 48 hrs by sulforhodamine B assay; details: SW-620, 48 h; for CC50: read-out: LC50 (the source's name)
[5] = Growth inhibition of human SNB75 cells incubated for 48 hrs by sulforhodamine B assay; details: SNB-75, 48 h; for CC50: read-out: LC50 (the source's name)
[6] = Growth inhibition of human LOXIMVI cells incubated for 48 hrs by sulforhodamine B assay; details: LOX IMVI; for CC50: read-out: LC50 (the source's name)
M14 = assay: Growth inhibition of human M14 cells incubated for 48 hrs by sulforhodamine B assay; details: M14, 48 h; for CC50: read-out: LC50 (the source's name)
[7] = Growth inhibition of human UACC257 cells incubated for 48 hrs by sulforhodamine B assay; details: UACC-257, 48 h; for CC50: read-out: LC50 (the source's name)
[8] = Growth inhibition of human UACC62 cells incubated for 48 hrs by sulforhodamine B assay; details: UACC-62, 48 h; for CC50: read-out: LC50 (the source's name)
[9] = Growth inhibition of human OVCAR5 cells incubated for 48 hrs by sulforhodamine B assay; details: OVCAR-5, 48 h; for CC50: read-out: LC50 (the source's name)
A498 = assay: Growth inhibition of human A498 cells incubated for 48 hrs by sulforhodamine B assay; details: A498, 48 h; for CC50: read-out: LC50 (the source's name)
[10] = Growth inhibition of human RXF393 cells incubated for 48 hrs by sulforhodamine B assay; details: RXF 393, 48 h; for CC50: read-out: LC50 (the source's name)
[11] = Growth inhibition of human UO31 cells incubated for 48 hrs by sulforhodamine B assay; details: UO-31, 48 h; for CC50: read-out: LC50 (the source's name)
[12] = Growth inhibition of human PC3 cells incubated for 48 hrs by sulforhodamine B assay; details: PC-3, 48 h; for CC50: read-out: LC50 (the source's name)
[13] = Growth inhibition of human colon cancer cells after 48 hrs by sulforhodamine B assay; details: Cancer cell lines; for CC50: read-out: LC50 (the source's name)
[14] = Growth inhibition of human CNS cancer cells after 48 hrs by sulforhodamine B assay; details: Cancer cell lines; for CC50: read-out: LC50 (the source's name)
[15] = Growth inhibition of human renal cancer cells after 48 hrs by sulforhodamine B assay; details: Cancer cell lines; for CC50: read-out: LC50 (the source's name)
[16] = Cytotoxicity against human RPMI8226 cells assessed as cell growth at 10 uM incubated for 48 hrs by sulforhodamine B assay; details: RPMI-8226, 48 h, read-out: Activity
K562 [17] = assay: Cytotoxicity against human K562 cells assessed as cell growth at 10 uM incubated for 48 hrs by sulforhodamine B assay; details: K562, 48 h, read-out: Activity
[18] = Cytotoxicity against human UACC62 cells assessed as cell growth at 10 uM incubated for 48 hrs by sulforhodamine B assay; details: UACC-62, 48 h, read-out: Activity
[19] = Cytotoxicity against human PC3 cells assessed as cell growth at 10 uM incubated for 48 hrs by sulforhodamine B assay; details: PC-3, 48 h, read-out: Activity
MDA-MB-468 = assay: Cytotoxicity against human MDA-MB-468 cells assessed as cell growth at 10 uM incubated for 48 hrs by sulforhodamine B assay; details: MDA-MB-468, 48 h, read-out: Activity
CCRF-CEM = assay: Cytotoxicity against human CCRF-CEM cells assessed as cell growth at 10 uM incubated for 48 hrs by sulforhodamine B assay; details: read-out: Activity
NCI-H460 = assay: Cytotoxicity against human NCI-H460 cells assessed as cell growth at 10 uM incubated for 48 hrs by sulforhodamine B assay; details: NCI-H460, 48 h, read-out: Activity
NCI-H23 = assay: Cytotoxicity against human NCI-H23 cells assessed as cell growth at 10 uM incubated for 48 hrs by sulforhodamine B assay; details: NCI-H23, 48 h, read-out: Activity
KM12 = assay: Cytotoxicity against human KM12 cells assessed as cell growth at 10 uM incubated for 48 hrs by sulforhodamine B assay; details: KM12, 48 h, read-out: Activity
U-251 = assay: Cytotoxicity against human U251 cells assessed as cell growth at 10 uM incubated for 48 hrs by sulforhodamine B assay; details: U-251, 48 h, read-out: Activity
[20] = Cytotoxicity against human SNB19 cells assessed as cell growth at 10 uM incubated for 48 hrs by sulforhodamine B assay; details: SNB-19, 48 h, read-out: Activity
MDA-MB-435 = assay: Cytotoxicity against human MDA-MB-435 cells assessed as cell growth at 10 uM incubated for 48 hrs by sulforhodamine B assay; details: MDA-MB-435, 48 h, read-out: Activity
[21] = Cytotoxicity against human NCI-ADR-RES cells assessed as cell growth at 10 uM incubated for 48 hrs by sulforhodamine B assay; details: read-out: Activity
SN12C = assay: Cytotoxicity against human SN12C cells assessed as cell growth at 10 uM incubated for 48 hrs by sulforhodamine B assay; details: read-out: Activity
SR = assay: Growth inhibition of human SR cells incubated for 48 hrs by sulforhodamine B assay
[22] = Growth inhibition of human HL-60(TB) cells incubated for 48 hrs by sulforhodamine B assay; details: HL-60, 48 h
K562 [23] = assay: Growth inhibition of human K562 cells incubated for 48 hrs by sulforhodamine B assay; details: K562, 48 h
[24] = Growth inhibition of human OVCAR4 cells incubated for 48 hrs by sulforhodamine B assay; details: OVCAR-4, 48 h
[25] = read-out: LC50 (the source's name)

Cc1cc(=O)oc2c(C)c(O)c(-c3ccnc(N)n3)cc12
GI50 (EKVX): 48.4 µM | TGI (EKVX): > 100 µM | CC50 (EKVX; [25]): > 100 µM | GI50 [1]: 6.85 µM | TGI [1]: > 100 µM | CC50 [1]: > 100 µM | GI50 [2]: > 100 µM | TGI [2]: > 100 µM | CC50 [2]: > 100 µM | GI50 [3]: 8.45 µM | TGI [3]: > 100 µM | CC50 [3]: > 100 µM | GI50 [4]: 3.6 µM | TGI [4]: > 100 µM | CC50 [4]: > 100 µM | GI50 [5]: 5.08 µM | TGI [5]: 92.9 µM | CC50 [5]: > 100 µM | GI50 [6]: 4.44 µM | TGI [6]: > 100 µM | CC50 [6]: > 100 µM | GI50 (M14): > 100 µM | TGI (M14): > 100 µM | CC50 (M14): > 100 µM | GI50 [7]: > 100 µM | TGI [7]: > 100 µM | CC50 [7]: > 100 µM | GI50 [8]: 17.2 µM | TGI [8]: > 100 µM | CC50 [8]: > 100 µM | GI50 [9]: > 100 µM | TGI [9]: > 100 µM | CC50 [9]: > 100 µM | GI50 (A498): 1.44 µM | TGI (A498): > 100 µM | CC50 (A498): > 100 µM | GI50 [10]: 4.7 µM | TGI [10]: 59.9 µM | CC50 [10]: > 100 µM | GI50 [11]: 2.59 µM | TGI [11]: > 100 µM | CC50 [11]: > 100 µM | GI50 [12]: > 100 µM | TGI [12]: > 100 µM | CC50 [12]: > 100 µM | GI50 [13]: 32.7 µM | TGI [13]: > 100 µM | CC50 [13]: > 100 µM | GI50 [14]: 13.1 µM | TGI [14]: > 100 µM | CC50 [14]: > 100 µM | GI50 [15]: 10.6 µM | TGI [15]: > 100 µM | CC50 [15]: > 100 µM | growth at 10 µM [16]: 30.5% | growth at 10 µM (K562 [17]): 46.5% | growth at 10 µM [18]: 51.5% | growth at 10 µM [19]: 60.3% | growth at 10 µM (MDA-MB-468): 40.4% | growth at 10 µM (CCRF-CEM): -36.8% | growth at 10 µM (NCI-H460): 19.8% | growth at 10 µM (NCI-H23): 68.3% | growth at 10 µM (KM12): 66.1% | growth at 10 µM (U-251): 56.3% | growth at 10 µM [20]: 64.1% | growth at 10 µM (MDA-MB-435): 55% | growth at 10 µM [21]: 57.1% | growth at 10 µM (SN12C): 50.8%

Cc1cc(=O)oc2c(C)c(O)c(-c3cc4ccc(F)cc4[nH]3)cc12
GI50 (SR): 3.24 µM | TGI (SR): 16.9 µM | CC50 (SR; [25]): > 100 µM | GI50 [22]: 2.96 µM | TGI [22]: 9.69 µM | CC50 [22, 25]: > 100 µM | GI50 (K562 [23]): 2.68 µM | TGI (K562 [23]): 23 µM | CC50 (K562 [23]; [25]): > 100 µM | GI50 [1]: 11.7 µM | TGI [1]: 25.6 µM | CC50 [1]: 56 µM | GI50 [2]: 3.49 µM | TGI [2]: 13.5 µM | CC50 [2]: 39.9 µM | GI50 [3]: 3.09 µM | TGI [3]: 13.6 µM | CC50 [3]: 63.1 µM | GI50 [4]: 3.54 µM | TGI [4]: 15.2 µM | CC50 [4]: 52.2 µM | GI50 [5]: 5.7 µM | TGI [5]: 24 µM | CC50 [5]: 78.3 µM | GI50 [6]: 2.51 µM | TGI [6]: 10.6 µM | CC50 [6]: 37.3 µM | GI50 (M14): 3.29 µM | TGI (M14): 12.7 µM | CC50 (M14): 36.7 µM | GI50 [7]: 1.82 µM | TGI [7]: 3.78 µM | CC50 [7]: 7.87 µM | GI50 [8]: 2.19 µM | TGI [8]: 13.2 µM | CC50 [8]: 39.4 µM | GI50 [24]: 3.99 µM | TGI [24]: 32.9 µM | CC50 [24, 25]: > 100 µM | GI50 [9]: 3.34 µM | TGI [9]: 16.7 µM | CC50 [9]: 49.7 µM | GI50 (A498): 1.93 µM | TGI (A498): 6.21 µM | CC50 (A498): 25.8 µM | GI50 [10]: 3.91 µM | TGI [10]: 14.7 µM | CC50 [10]: 42.3 µM | GI50 [11]: 1.71 µM | TGI [11]: 6.21 µM | CC50 [11]: 25.5 µM | GI50 [12]: 2.64 µM | TGI [12]: 10 µM | CC50 [12]: > 100 µM | GI50 [13]: 5.38 µM | TGI [13]: 16.2 µM | CC50 [13]: 48.1 µM | GI50 [14]: 3.89 µM | TGI [14]: 17.5 µM | CC50 [14]: 72.9 µM | GI50 [15]: 2.94 µM | TGI [15]: 10.8 µM | CC50 [15]: 43.1 µM | growth at 10 µM [16]: 8.76% | growth at 10 µM (K562 [17]): 26.7% | growth at 10 µM [18]: 26% | growth at 10 µM [19]: 27.5% | growth at 10 µM (MDA-MB-468): 16.7% | growth at 10 µM (CCRF-CEM): 43.1% | growth at 10 µM (NCI-H460): 28.4% | growth at 10 µM (NCI-H23): 10.2% | growth at 10 µM (KM12): 33.2% | growth at 10 µM (U-251): 27.9% | growth at 10 µM [20]: 31.6% | growth at 10 µM (MDA-MB-435): 32.4% | growth at 10 µM [21]: 20.7% | growth at 10 µM (SN12C): 35.1%
